Assay [1] deals with MDA-MB-453. Put plainly: drug sensitivity score (DSS), single agent (DSS (weighted AUC score)); higher = more sensitive (stronger viability decrease); extreme values may be limits of the assay. To be noted: BLU9931 0 nM; 72 h. In short, it runs like this:
(§1)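 Cells of the MDA-MB-453 line (2000 per well) were added in medium, with or without 100 nM final FGFR4 inhibitor, to 384-well plates predispensed with FIMM Oncology set compounds at five 10-fold dilutions covering a 10,000-fold range. After 72 h at 37 °C, 5% CO2, CellTiterGlo 2.0 read cellular ATP. Percent viability came from per-plate normalisation to control wells, and the drug sensitivity score was defined as a weighted area under a four-parameter logistic fit.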

Assay [2] deals with MDA-MB-453. Put plainly: drug sensitivity score (DSS), in combination with BLU9931 (DSS (weighted AUC score)); higher = more sensitive (stronger viability decrease); extreme values may be limits of the assay. To be noted: BLU9931 100 nM; 72 h. In short, it runs like this:
as §1

SMILES strings stand for the structures.

In the case of `O=C(/C=C\n1cnc(-c2cc(C(F)(F)F)cc(C(F)(F)F)c2)n1)NNc1ccccn1` [Verdinexor], the drug sensitivity score in the assay on MDA-MB-453 [1] came out at 4.7; in the assay with MDA-MB-453 [2] it was 4.9.
In the same order, the values of `Cc1nc(C(=O)NCC(=O)O)c(O)c2ccc(Oc3ccccc3)cc12` [Roxadustat] are 0 and 0.
The corresponding values for `CN1C(=O)N[C@H](Cc2c[nH]c3c(Cl)cccc23)C1=O` [Necrostatin 2] are 0 and 0.
For `CCN(CC)CCN(Cc1ccc(-c2ccc(C(F)(F)F)cc2)cc1)C(=O)Cn1c(SCc2ccc(F)cc2)nc(=O)c2c1CCC2` [Darapladib], the drug sensitivity score in the assay on MDA-MB-453 [1] turned out to be 1.5; with MDA-MB-453 [2] it was 0.
As for `Nc1nc2[nH]cnc2c(=S)[nH]1` [Thioguanine], the results for the drug sensitivity score with MDA-MB-453 [1] and with MDA-MB-453 [2] were 10.4 and 5.9, respectively.
In the same order, the values of `CC[C@@H](C(=O)[C@@H](C)[C@@H](O)[C@H](C)[C@@H]1O[C@@H]([C@@H](CC)C(=O)O)CC[C@@H]1C)[C@H]1O[C@]2(C=C[C@@H](O)[C@]3(CC[C@@](C)([C@H]4CC[C@](O)(CC)[C@H](C)O4)O3)O2)[C@H](C)C[C@@H]1C` [Salinomycin] are 6.8 and 3.2.
In the same order, the values of `COc1cc2c(cc1-c1c(C)noc1C)ncc1[nH]c(=O)n([C@H](C)c3ccccn3)c12` [I-BET151] are 11.5 and 11.4.
For the molecule `CC(C)[C@H](C(=O)Nc1ccc(C(=O)NO)cc1)c1ccccc1` [AR-42], the values for the drug sensitivity score with MDA-MB-453 [1] and with MDA-MB-453 [2] were 18.1 and 17.8, respectively.
For `Cn1c(Nc2ccc(C(F)(F)F)cc2)nc2cc(Oc3ccnc(-c4ncc(C(F)(F)F)[nH]4)c3)ccc21` [NVP-RAF265], the results for the drug sensitivity score in the assay on MDA-MB-453 [1] and with MDA-MB-453 [2] were 1.7 and 1.1, respectively.
The corresponding values for `Cn1ncnc1[C@H]1c2n[nH]c(=O)c3cc(F)cc(c23)N[C@@H]1c1ccc(F)cc1` [Talazoparib] are 1.7 and 3.1.
In the same order, the values of `COc1cc2c(cc1OC(C)C)[C@H](c1ccc(Cl)cc1)N(c1ccc(N(C)C[C@H]3CC[C@H](N4CCN(C)C(=O)C4)CC3)cc1)C(=O)C2` [NVP-CGM097] are 7.9 and 8.5.
In the case of `COc1cc2c(Oc3ccc(NC(=O)C4(C(=O)Nc5ccc(F)cc5)CC4)cc3F)ccnc2cc1OCCCN1CCOCC1` [Foretinib], the drug sensitivity score was 1.1 in the assay with MDA-MB-453 [1] and 1.2 in the assay with MDA-MB-453 [2].
Consider `CCCN(CCC)C(=O)C1=Cc2ccc(-c3ccc(C(=O)N4CCCC4)cc3)cc2N=C(N)C1` [Motolimod], for which the drug sensitivity score in the assay with MDA-MB-453 [1] worked out at 0.1; in the assay with MDA-MB-453 [2], 0.
For `COc1cc(NS(C)(=O)=O)ccc1Nc1c2ccccc2nc2ccccc12` [Amsacrine], the drug sensitivity score in the assay with MDA-MB-453 [1] amounted to 1.2; in the assay on MDA-MB-453 [2], 2.
The corresponding values for `Nc1cc(F)ccc1NC(=O)/C=C/c1cnn(C/C=C/c2ccccc2)c1` [RGFP966] are 2.6 and 2.9.
The corresponding values for `O=C(/C=C/c1cccc(S(=O)(=O)Nc2ccccc2)c1)NO` [Belinostat] are 21.3 and 20.2.
For `CN(c1ncccc1CNc1nc(Nc2ccc3c(c2)CC(=O)N3)ncc1C(F)(F)F)S(C)(=O)=O`, the drug sensitivity score in the assay on MDA-MB-453 [1] and in the assay with MDA-MB-453 [2] was 3.9 throughout.
For `CNC(=O)c1ccccc1Nc1nc(Nc2ccc3c(c2OC)CCC[C@H](N2CCN(CCO)CC2)C3)ncc1Cl`, the drug sensitivity score in the assay on MDA-MB-453 [1] worked out at 6.7; in the assay on MDA-MB-453 [2], 5.6.
The corresponding values for `CCC(C)n1ncn(-c2ccc(N3CCN(c4ccc(OCC5COC(Cn6cncn6)(c6ccc(Cl)cc6Cl)O5)cc4)CC3)cc2)c1=O` (stereo not drawn) [Itraconazole] are 2.9 and 1.5.
As for `COc1nc(N)nc2c1ncn2[C@@H]1O[C@H](CO)[C@@H](O)[C@@H]1O` [Nelarabine], the drug sensitivity score in the assay on MDA-MB-453 [1] is 1.3; in the assay on MDA-MB-453 [2] it was 1.5.
The corresponding values for `CN1CC[C@H](c2c(O)cc(O)c3c(=O)cc(-c4ccccc4Cl)oc23)[C@H](O)C1` [Alvocidib] are 14.5 and 16.2.
For the molecule `CN1CCC(CNc2ccc3ncc(-c4cccc(OC(F)(F)F)c4)n3n2)CC1` [SGI-1776], the drug sensitivity score in the assay on MDA-MB-453 [1] was 6.6; in the assay on MDA-MB-453 [2], 5.8.
For `FC(F)(F)c1ccc(/C=C/c2nc(COc3ccc(CCCCn4ccnn4)cc3)co2)cc1` [Mubritinib], the values for the drug sensitivity score in the assay on MDA-MB-453 [1] and with MDA-MB-453 [2] were 7.8 and 4, respectively.
In the same order, the values of `Cc1nc2cccc(N)c2c(=O)n1C1CCC(=O)NC1=O` (stereo not drawn) [CC122] are 0 and 0.
In the same order, the values of `CONC(=O)c1ccccc1Nc1cc(Nc2cc(C)nn2C(C)C)ncc1Cl` are 0.8 and 0.5.
Turning to `C=C(c1ccc(C(=O)O)cc1)c1cc2c(cc1C)C(C)(C)CCC2(C)C` [Bexarotene], the drug sensitivity score in the assay with MDA-MB-453 [1] and in the assay with MDA-MB-453 [2] was 0 each time.
With `O=S(=O)(c1cccc2c(O)nccc12)N1CCCNCC1` [Hydroxyfasudil], the results for the drug sensitivity score in the assay with MDA-MB-453 [1] and in the assay with MDA-MB-453 [2] were 0 and 0.2, respectively.
The corresponding values for `N#Cc1ccc(COC[C@H]2O[C@@H](n3c(NCc4ccc(Cl)c(Cl)c4)nc4c(N)ncnc43)[C@H](O)[C@@H]2O)cc1` are 4.9 and 4.2.
Consider `CCc1cncnc1N1CCN(Cc2nc3ccc(C(F)(F)F)cc3[nH]2)CC1`, for which the drug sensitivity score in the assay with MDA-MB-453 [1] and in the assay on MDA-MB-453 [2] was 0.6 in each case.
In the case of `Cc1nc(-c2cn3c(n2)-c2ccc(-c4cnn(C(C)(C)C(N)=O)c4)cc2OCC3)n(C(C)C)n1` [Taselisib], the drug sensitivity score with MDA-MB-453 [1] stood at 17.9; in the assay with MDA-MB-453 [2], 19.3.
The corresponding values for `CNC(=O)c1cccc(-c2ccc3c(N4CCOC[C@@H]4C)nc(N4CCOC[C@@H]4C)nc3n2)c1` [Vistusertib] are 16.3 and 16.9.
In the same order, the values of `C=CCn1c(=O)c2cnc(Nc3ccc(N4CCN(C)CC4)cc3)nc2n1-c1cccc(C(C)(C)O)n1` [AZD1775] are 13.7 and 12.4.
`C[C@]1(c2nc3c(C(N)=O)cccc3[nH]2)CCCN1` [Veliparib]: the drug sensitivity score in the assay on MDA-MB-453 [1] is 1.6; in the assay with MDA-MB-453 [2], 2.9.
In the case of `COc1ccc2[nH]cc(/C=C3\C(=O)Nc4ccc(NC(=O)CCN5CCCCC5)cc43)c2c1`, the results for the drug sensitivity score in the assay with MDA-MB-453 [1] and with MDA-MB-453 [2] were 6.1 and 4.8, respectively.
For `CC1(C)NC(=O)N(c2ccc([N+](=O)[O-])c(C(F)(F)F)c2)C1=O` [Nilutamide], the drug sensitivity score in the assay on MDA-MB-453 [1] and in the assay with MDA-MB-453 [2] was 0 in each case.
On to `COc1cc(C(=O)O)ccc1NC(=O)[C@@H]1N[C@@H](CC(C)(C)C)[C@](C#N)(c2ccc(Cl)cc2F)[C@H]1c1cccc(Cl)c1F` [Idasanutlin], for which the drug sensitivity score in the assay with MDA-MB-453 [1] is 1.1; in the assay with MDA-MB-453 [2], 0.
The corresponding values for `O=c1[nH]c(C2CCCN2)nc2c1oc1ccc(Cl)cc12` (stereo not drawn) are 0 and 0.5.
Take `Cn1cncc1[C@@](N)(c1ccc(Cl)cc1)c1ccc2c(c1)c(-c1cccc(Cl)c1)cc(=O)n2C` [Tipifarnib]: the drug sensitivity score was 8.3 in the assay on MDA-MB-453 [1] and 4.1 in the assay with MDA-MB-453 [2].
For `CO[C@@H]1[C@H](N(C)C(=O)c2ccccc2)C[C@H]2O[C@]1(C)n1c3ccccc3c3c4c(c5c6ccccc6n2c5c31)C(=O)NC4` [Midostaurin], the drug sensitivity score in the assay with MDA-MB-453 [1] came out at 7.3; in the assay on MDA-MB-453 [2] it was 4.8.
As to `Cc1[nH]nc(C(F)(F)F)c1Cc1sc2c(c1C(=O)N1C[C@](C)(O)CO1)c(=O)n(C)c(=O)n2C(C)C` [AZD3965], the drug sensitivity score with MDA-MB-453 [1] and with MDA-MB-453 [2] was 0 in each case.
As to `CNC(=O)c1ccccc1Sc1ccc2c(/C=C/c3ccccn3)n[nH]c2c1` [Axitinib], the drug sensitivity score was determined as 2.2 in the assay on MDA-MB-453 [1] and 0.3 in the assay with MDA-MB-453 [2].
Regarding `O=c1[nH]c(=O)n([C@H]2C[C@H](O)[C@@H](CO)O2)cc1F` [Floxuridine], the drug sensitivity score in the assay with MDA-MB-453 [1] was determined as 4.9; in the assay with MDA-MB-453 [2], 2.
The corresponding values for `O=C(Nc1cccnc1)N1CCC(Cc2cccc(Oc3ccc(C(F)(F)F)cn3)c2)CC1` [PF-3845] are 1.8 and 2.2.
`CC[C@]1(O)C[C@H]2CN(CCc3c([nH]c4ccccc34)[C@@](C(=O)OC)(c3cc4c(cc3OC)N(C=O)[C@H]3[C@@](O)(C(=O)OC)[C@H](OC(C)=O)[C@]5(CC)C=CCN6CC[C@]43[C@@H]65)C2)C1` [Vincristine]: the values for the drug sensitivity score with MDA-MB-453 [1] and with MDA-MB-453 [2] were 14.1 and 8.1, respectively.
In the same order, the values of `CCOc1ccccc1-n1c(C(C)N2CCN(C(=O)COc3ccc(Cl)cc3)CC2)nc2ccccc2c1=O` (stereo not drawn) [Erastin] are 4.1 and 5.6.
In the same order, the values of `CN(C)CCCOc1ccc(-c2ccc3ncc4c(c3c2)n(C2CCOCC2)c(=O)n4C)cn1` [AZD0156] are 1.6 and 3.
In the same order, the values of `O=C(O)c1ccc(-c2c[nH]c3ncc(-c4ccccc4)cc23)cc1C1CCCC1` are 1.4 and 0.5.
As to `O=C(Nc1cnn2ccc(N3CCC[C@@H]3c3cc(F)ccc3F)nc12)N1CC[C@H](O)C1` [Larotrectinib], the results for the drug sensitivity score in the assay with MDA-MB-453 [1] and in the assay on MDA-MB-453 [2] were 0.4 and 0, respectively.
For `Nc1ccn([C@@H]2O[C@H](CO)[C@@H](O)C2(F)F)c(=O)n1` [Gemcitabine], the drug sensitivity score in the assay on MDA-MB-453 [1] was found to be 6.9; in the assay with MDA-MB-453 [2] it was 6.

The values above are taken from the supplement of paper PMC7224384.
